# Results reported in US20160002217A1, “FUNGICIDAL 3--OXADIAZOLONE DERIVATIVES” (BAYER CROPSCIENCE AG, priority 2013, published 2016).
# Marks after values point to notes of the source that are not given here.
# Tests used:
# Plasmopara viticola = experiment: Plasmopara test (grapevines) / preventive; format: in vivo; details: grapevine plants, preventive spray, 10 ppm of active ingredient, evaluated 6 days after inoculation
# Procedure: Solvent: 24.5 parts by weight of acetone • 24.5 parts by weight of dimethylacetamide
# Emulsifier: 1 part by weight of alkylaryl polyglycol ether
# To produce a suitable preparation of active compound, 1 part by weight of active compound is mixed with the stated amounts of solvent and emulsifier, and the concentrate is diluted with water to the desired concentration.
# To test for preventive activity, young plants are sprayed with the preparation of active compound at the stated rate of application. After the spray coating has dried on, the plants are inoculated with an aqueous spore suspension of Plasmopara viticola and then remain for 1 day in an incubation cabinet at approximately 20° C. and a relative atmospheric humidity of 100%. The plant is subsequently placed for 4 days in a greenhouse at approximately 21° C. and a relative atmospheric humidity of approximately 90%. The plants are then misted and placed for 1 day in an incubation cabinet.
# The test is evaluated 6 days after the inoculation. 0% means an efficacy which corresponds to that of the untreated control, while an efficacy of 100% means that no disease is observed.
# Phytophthora infestans = format: in vivo; details: tomato plants, preventive spray, 500 ppm of active ingredient, evaluated 5 days after inoculation
# [1] = pH 2.7
# Puccinia recondita = experiment: In vivo preventive test on Puccinia recondita (brown rust on wheat); details: wheat plants, preventive spray, 500 ppm of active ingredient, evaluated 11 days after inoculation
# Procedure: (§1) The tested active ingredients are prepared by homogenization in a mixture of acetone/Dimethyl sulfoxide/Tween®, and then diluted with water to obtain the desired active material concentration.
# (§2) The young plants of wheat are treated by spraying the active ingredient prepared as described above. Control plants are treated only with an aqueous solution of acetone/Dimethyl sulfoxide/Tween®.
# After 24 hours, the plants are contaminated by spraying the leaves with an aqueous suspension of Puccinia recondita spores. The contaminated wheat plants are incubated for 24 hours at 20° C. and at 100% relative humidity and then for 10 days at 20° C. and at 70-80% relative humidity.
# (§3) The test is evaluated 11 days after the inoculation. 0% means an efficacy which corresponds to that of the control plants while an efficacy of 100% means that no disease is observed.
# Uromyces appendiculatus = experiment: In vivo preventive test on Uromyces appendiculatus (bean rust); details: bean plants, preventive spray, 500 ppm of active ingredient, evaluated 11 days after inoculation
# Procedure: as §1
# The young plants of bean are treated by spraying the active ingredient prepared as described above. Control plants are treated only with an aqueous solution of acetone/Dimethyl sulfoxide/Tween®.
# After 24 hours, the plants are contaminated by spraying the leaves with an aqueous suspension of Uromyces appendiculatus spores. The contaminated bean plants are incubated for 24 hours at 20° C. and at 100% relative humidity and then for 10 days at 20° C. and at 70-80% relative humidity.
# as §3
# Pyricularia oryzae = format: in vivo; details: rice plants, preventive spray, 500 ppm of active ingredient, evaluated 6 days after inoculation
# [2] = Measurement of log P values by HPLC on reversed phase columns (EEC directive 79/831 Annex V.A8); details: pH 2.7
# Pyrenophora teres = experiment: In vivo preventive test on Pyrenophora teres (net blotch on barley); details: barley plants, preventive spray, 500 ppm of active ingredient, evaluated 14 days after inoculation
# Procedure: as §1
# The young plants of barley are treated by spraying the active ingredient prepared as described above. Control plants are treated only with an aqueous solution of acetone/Dimethyl sulfoxide/Tween®.
# After 24 hours, the plants are contaminated by spraying the leaves with an aqueous suspension of Pyrenophora teres spores. The contaminated barley plants are incubated for 48 hours at 20° C. and at 100% relative humidity and then for 12 days at 20° C. and at 70-80% relative humidity.
# The test is evaluated 14 days after the inoculation. 0% means an efficacy which corresponds to that of the control plants while an efficacy of 100% means that no disease is observed.
# Alternaria brassicae = experiment: In vivo preventive test on Alternaria brassicae (leaf spot on radish); details: radish plants, preventive spray, 500 ppm of active ingredient, evaluated 6 days after inoculation
# Procedure: as §1
# The young plants of radish are treated by spraying the active ingredient prepared as described above. Control plants are treated only with an aqueous solution of acetone/Dimethyl sulfoxide/Tween®.
# After 24 hours, the plants are contaminated by spraying the leaves with an aqueous suspension of Alternaria brassicae spores. The contaminated radish plants are incubated for 6 days at 20° C. and at 100% relative humidity.
# The test is evaluated 6 days after the inoculation. 0% means an efficacy which corresponds to that of the control plants while an efficacy of 100% means that no disease is observed.
# Septoria tritici = experiment: In vivo preventive test on Septoria tritici (leaf spot on wheat); details: wheat plants, preventive spray, 500 ppm of active ingredient, evaluated 24 days after inoculation
# Procedure: as §1, §2
# After 24 hours, the plants are contaminated by spraying the leaves with an aqueous suspension of Septoria tritici spores. The contaminated wheat plants are incubated for 72 hours at 18° C. and at 100% relative humidity and then for 21 days at 20° C. and at 90% relative humidity.
# The test is evaluated 24 days after the inoculation. 0% means an efficacy which corresponds to that of the control plants while an efficacy of 100% means that no disease is observed.
Compound,% efficacy (Plasmopara viticola),% efficacy (Phytophthora infestans),LogP [1],% efficacy (Puccinia recondita),% efficacy (Uromyces appendiculatus),% efficacy (Pyricularia oryzae),chromatographic logP [2],% efficacy (Pyrenophora teres),% efficacy (Alternaria brassicae),% efficacy (Septoria tritici)
Cn1c(C(=NOCc2csc(NC(=O)OC(C)(C)C)n2)c2ccsc2)noc1=O [Example 16],99%,100%,3.39^[a],–,–,–,–,–,–,–
Cn1c(C(=NOCc2csc(NC(=O)C3CCc4ccccc4O3)n2)c2ccsc2)noc1=O (stereo not shown) [Example 69],92%,75%,3.62^[a],–,–,–,–,–,–,–
CC(Oc1ccccc1)C(=O)Nc1nc(CON=C(c2cccs2)c2noc(=O)n2C)cs1 (stereo not shown) [Example 80],100%,100%,3.42^[a],–,–,–,–,–,–,–
"Cn1oc(=O)nc1/C(=N\OCc1cccc(NC(=O)OC(C)(C)C)n1)c1ccccn1 [Example 22, tert-butyl {6-[({[(Z)-(2-methyl-5-oxo-2,5-dihydro-1,2,4-oxadiazol-3-yl)(pyridine-2-yl)methylene]amino}oxy)methyl]pyridin-2-yl}carbamate]",–,99%,–,88%,100%,75%,2.68,–,–,–
C#CCCOC(=O)Nc1cccc(CON=C(c2ccncc2)c2noc(=O)n2C)n1 [Example 45],91%,100%,2.21^[a],–,–,–,–,–,–,–
Cn1c(C(=NOCc2cccc(NC(=O)OC(C)(C)C)n2)c2ccccn2)noc1=O [Example 13],–,98%,3.17^[a],–,–,–,–,77%,91%,75%
